The assay has as its system ovariectomized female Wistar rats (osteoporosis caused by estrogen deficiency). The assay is described as follows: Ovariectomized female rat model of osteoporosis caused by estrogen deficiency. Conditions: two months; for bone volume of proximal tibia vs OVX group: FIG. 1; for apparent bone density of tibia vs OVX group: FIG. 2; for erosion surface (ES/BS) of proximal tibia (bone resorption) vs OVX group: FIG. 3. Format: in vivo. From the text:
The purpose of this example is to show the potency of bakuchiol in treating osteoporosis, wherein ovary of a female rat is removed to stimulate osteoporosis caused by estrogen deficiency.
The female Wistar rats of 16 weeks old (unless specified in the other experiment description) were obtained from the stock reared by the Animal breeding center, National Scientific Council in Taipei. These rats were grouped by weights matched in order to distribute the physiological response variation from rats evenly into each group. These rats were grouping as follows: • Baseline group fed with no drug added food (n=8) • Sham operation group fed with no drug added food (Sham) (n=10) • Ovariectomy operation group fed with no drug added food (OVX) (n=8) • Ovariectomy operation group fed with Drug A (5 mg/kg) added food (OVX+A) (n=9) • Ovariectomy operation group fed with Drug B (15 mg/kg) added food (OVX+B) (n=9)
Ovariectomy (removal of ovaries) operation: Ovariectomy was induced using a protocol similar to that described by Wronski et al (Wronski et al, Endocrinology, 123 (2), 681-686 ([…]))
During the experiments, the rats were housed in hanging grid cages in groups of two at 21° C. with a 12 hours dark cycle. Food (Rat-mouse diet III, adequate in 1% of calcium content and 1.2% of phosphate content, Purina, USA) was administered by paired feeding between the experimental and control groups. Pair-feeding was carried out by calculating the average amount of food intake in the Sham group. So give the same amount of food to the OVX, OVX+A (5 mg/kg), OVX+B (15 mg/kg) group animals the following day. These animals were fed with a period of two months except for the baseline group which were killed on the very day of doing ovariectomy or sham operation. Rats of OVX+A and OVX+B groups were fed with the usual food chuck but added certain amount of compound A and B in it respectively. Water was given ad libitum to all rats.
The test drug was weighted according to dose of 5 mg/kg and 15 mg/kg, and added into the usual food chuck powder and mixed with 10% starch paste. After fully mixed, these chuck powder were made into mass manually and dried by air flow oven. The food with added drug to rats was performed by single blind method.
These labeling and bone histomorphometry assessment were done based on standard procedure in bone research (Lin et al, Calcif. Tissue Int., 67, 373-377 (2000)). Specimen were prestained with Villanueva bone stain, then […] embedded in London resin. Undecalcified sections of 7 μm thick were cut using Jung-K microtome (Leica Ltd, USA) and treated with Villanueva stain for observation under light microscopy. Seven μm thick unstained sections were prepared for fluorescent microscopy and assessed with program Osteomeasure (3.0 version, Atlanta, USA). The bone volume (FIG. 1) and eroded surface parameters (FIG. 3) were obtained according to Lin et al. (Lin et al, Calcif. Tissue Int., 67, 373-377 (2000)). The experiment was performed under specific project licences from the Animal Center and IAACU, National Defense Medical Center, National Defense University, Taipei, Taiwan.
The whole tibia and femur were stripped off attached muscles and ligaments after sacrifice. An apparent bone density measurement was done based on Archimedes floating principle on an electronic balance set with densitometry frame (Danielsen et al., Calcif. Tissue Int., 52, 26-33 (1993)). The weight of bone measured in the air was marked as W-air. The weight of the same bone weighed in water will be marked as W-water. The apparent bone density was calculated as [W-air/(W-air minus W-water)](gm/cm^3) (FIG. 2, Bone apparent density of Tibia).

“Also recorded” adds a separate entry of the source.

From patent US7714026B2, “Pharmaceutical composition containing bakuchiol for treating woman osteoporosis” (Sinphar Pharmaceutical Co., Ltd., priority 2004, dated 2010) come the findings set out here.

For `C=C[C@@](C)(/C=C/c1ccc(O)cc1)CCC=C(C)C` [Bakuchiol, bakuchiol], under “OVX+A, 5 mg/kg in food”, the “bone volume of proximal tibia vs OVX group” value is recorded as “increase in the bone volume” and the “apparent bone density of tibia vs OVX group” value was “increase”. Besides, where the note is “OVX+A, 5 mg/kg in food, 5 mg/kg”, the “erosion surface (ES/BS) of proximal tibia (bone resorption) vs OVX group” value is reported as “inhibiting the bone resorption; also recorded: inhibition of bone erosion (bone resorption)”. Also, where the note is “OVX+B, 15 mg/kg in food”, the “bone volume of proximal tibia vs OVX group” value is recorded as “increase in the bone volume”, the “apparent bone density of tibia vs OVX group” value is “increase” and the “erosion surface (ES/BS) of proximal tibia (bone resorption) vs OVX group” value is given as “inhibition of bone erosion (bone resorption)”.
